Where a SMILES comes first, the peptide text is derived from it. [ ]: non-standard residue; d: D form. pGlu = O=C1CC[C@@H](C(=O)O)N1; Nle = CCCC[C@H](N)C(=O)O; Nva = CCC[C@H](N)C(=O)O; Abu = CC[C@H](N)C(=O)O
Columns and labels:
[1] = test system: Haloperidol-induced catalepsy; assay: Inhibition of Haloperidol-induced catalepsy on rats; type: in vivo, male Wistar rats; conditions: 40 mg/kg Haloperidol s.c., compound i.v. 120 min later, probit analysis, observation time per compound
Experimental: (1) Inhibition of Haloperidol-induced catalepsy on rats (see J. Delay and P. Deniker: Compt. Rend. Congr. Med. Alenistes Neurologistes, 19, 497, Luxembourg, 1952)
The tests were performed on male Wistar rats weighing 160 to 180 g.
40 mg/kg of 4-(p-chlorophenyl)-1-(3-/p-fluorobenzoyl/propyl)-piperidin-4-ol(Haloperidol) were administered subcutaneously into the animals, and 120 minutes after this treatment the animals were checked for the appearance of catalepsy. The rats were divided into groups of 10 animals each, and treated intravenously with TRH or the new TRH analogues. The animals belonging to the control group received physiological saline. The catalepsy-suspending effects of the individual compounds were determined 15, 30, 60, 90 and 120 minutes after the treatment. The animals that had not changed their position for 30 seconds after placing their fore-paw onto a 7 cm high column were regarded as cataleptic.

[2] = test system: locomotive activity induced by L-Dopa; assay: Potentiation of locomotive activity induced on mice by L-Dopa; type: in vivo, male mice; conditions: Pargyline 40 mg/kg i.p., compound 20 mg/kg i.p., L-Dopa 100 mg/kg i.p., percent related to TRH; for Potentiation of the locomotive effect of L-Dopa % after 30': 30 min; for Potentiation of the locomotive effect of L-Dopa % after 60': 60 min; for Potentiation of the locomotive effect of L-Dopa % after 90': 90 min
Experimental: (2) Potentiation of locomotive activity induced on mice by L-Dopa (see The Thyroid Axis, Drugs and Behavior, p. 116, A. J. Prage Jr., Raven Press, New York, 1974)
The tests were performed on groups of 15 male mice each, weighing 18 to 22 g.
First, the animals were treated intraperitoneally with 40 mg/kg of N-methyl-N-propargyl-benzylamine (Pargyline), and then an intraperitoneal dosage of 20 mg/kg of TRH or a TRH-analogue was introduced, followed by an intraperitoneal dosage of 100 mg/kg of L-Dopa. The locomotive activity of the animals was recorded 30, 60 and 90 minutes after this treatment, and the level of potentiation was expressed in percents related to the results observed with TRH.

[3] = test system: Reserpine hypothermy; assay: Reserpine hypothermy-reversing effect on mice; type: in vivo, male mice; conditions: average of 10 animals; for Reserpine hypothermy reversing effect, Rectal temperature res.: 16 hours after reserpine 5 mg/kg i.p., before the tripeptide; for Reserpine hypothermy reversing effect, Rectal temperature norm.: prior to the administration of reserpine (baseline of the group); for Reserpine hypothermy reversing effect, Rectal temperature obs. time 1 h / Reserpine hypothermy reversing effect, Rectal temperature obs. time 2 h: reserpine 5 mg/kg i.p.; for Reserpine hypothermy reversing effect, Rectal temperature obs. time 1 h: 1 hour after 20 mg/kg of the tripeptide; for Reserpine hypothermy reversing effect, Rectal temperature obs. time 2 h: 2 hours after 20 mg/kg of the tripeptide
Experimental: (3) Reserpine hypothermy-reversing effect on mice (see B. M. Askew: Life Sci. 2, 725-730 /1963/)
The tests were performed on groups of 10 male mice each, weighing 18 to 22 g. Reserpine was administered into the animals in an intraperitoneal dosage of 5 mg/kg, and 16 hours later the animals were treated with 20 mg/kg of TRH or a tripeptide under examination.
The rectal temperature of the animals was measured prior to the administration of reserpine (marked by "norm." in Table 1), 16 hours after the administration of reserpine (marked by "res." in Table 1), furthermore 1 and 2 hours after the administration of the tripeptide (marked by "obs. time" in Table 1). The data listed in Table 1 are the averages of the temperatures observed on the 10 animals.

[4] = test system: sleeping caused by hexobarbital; assay: Influencing the duration of sleeping caused by hexobarbital; type: in vivo, male mice; conditions: mice, hexobarbital sodium 60 mg/kg i.v., 10 min later compound 20 mg/kg i.p.; control 38.4 ± 1.36 min.
Experimental: (4) Influencing the duration of sleeping caused by hexobarbital The tests were performed on groups of 10 male mice each. The animals were treated intravenously with 60 mg/kg of hexobarbital sodium ([…]; Bayer), and 10 minutes later 20 mg/kg of TRH or a tripeptide under examination were administered intraperitoneally into the animals. The sleeping times of the animals were recorded, averages were calculated for the individual groups, and the results were expressed as percents related to the control group.

[5] = test system: Ethanol narcosis; assay: Ethanol narcosis; type: in vivo; conditions: mice, 4.5 g ethanol i.p., 10 min later compound 20 mg/kg i.p.; control 46.9 ± 2.17 min.
Experimental: (5) Ethanol narcosis (see J. M. Cott et al.: J. Pharm. Exp. Ther. 196, 594 /1976/) The tests were performed on groups of 20 mice of both sexes, each weighing 18 to 22 g. […] of ethanol were introduced intraperitoneally into the animals, and 10 minutes later the animals were treated intraperitoneally with 20 mg/kg of TRH or a tripeptide under examination. The sleeping periods of the animals were recorded, averages were calculated for the individual groups, and the results were expressed as percents related to the control group.

[6] = test system: TSH; assay: Hormonal activity (TSH effect) on rats; type: in vivo, male Wistar rats; conditions: 20 mg/kg i.v., plasma TSH by radioimmune assay 15 min after treatment, relative activity, TRH = 100%
Experimental: (6) Hormonal activity (TSH effect) on rats
The tests were performed on groups of 7 or 8 male Wistar rats each, weighing 200 g. The animals were treated intravenously with 20 mg/kg of TRH or a tripeptide under examination. The TSH reaction of the animals was evaluated 15 minutes after this treatment, by subjecting the blood plasma to radioimmune assay. The relative activities were calculated by the four-point method using a TPA 101 computer, and the activity of TRH was regarded as 100%.

| SMILES | Inhibition of Haloperidol catalepsy ED50 [1] [mg/kg] | Potentiation of the locomotive effect of L-Dopa % after 30' [2] [%] | Potentiation of the locomotive effect of L-Dopa % after 60' [2] [%] | Potentiation of the locomotive effect of L-Dopa % after 90' [2] [%] | Reserpine hypothermy reversing effect, Rectal temperature res. [3] [°C] | Reserpine hypothermy reversing effect, Rectal temperature norm. [3] [°C] | Reserpine hypothermy reversing effect, Rectal temperature obs. time 1 h [3] [°C] | Reserpine hypothermy reversing effect, Rectal temperature obs. time 2 h [3] [°C] | Decrease of sleeping period (% related to the control animals) Hexobarb. [4] [%] | Decrease of sleeping period (% related to the control animals) Ethanol [5] [%] | TSH effect [6] [%] |
| --- | --- | --- | --- | --- | --- | --- | --- | --- | --- | --- | --- |
| CC[C@H](NC(=O)[C@@H]1CCC(=O)N1)C(=O)N1CCC[C@H]1C(N)=O [Abu Pro H, L-Pyroglutamyl-L-α-aminobutyl-L-prolinamide] ([pGlu]-[Abu]-Pro-NH2) | 80 | 27 | 14 | 18 | 19.7 | 36.3 | 22.2 | 25.4 | 84 | 39 | 0.02 |
| NC(=O)[C@@H]1CCCCN1C(=O)[C@H](Cc1c[nH]cn1)NC(=O)[C@@H]1CCC(=O)N1 [His HPro H, L-Pyroglutamyl-L-histidyl-L-homoprolinamide] | 13.7 | 209 | 85 | 110 | 28.5 | 36.5 | 35.3 | 35.4 | 63 | 114 | 68.6 |
| CCNC(=O)[C@@H]1CCCN1C(=O)[C@H](CC(C)C)NC(=O)[C@@H]1CCC(=O)N1 [Leu Pro Et, L-Pyroglutamyl-L-leucyl-L-proline ethylamide] ([pGlu]-Leu-Pro-NHEt) | 56.6 | 102 | 90 | 201 | 28.7 | 36.2 | 30.7 | 33.4 | 126 | 65 | 0 |
| CCCC[C@H](NC(=O)[C@@H]1CCC(=O)N1)C(=O)N1CCC[C@H]1C(N)=O [Nleu Pro H, L-Pyroglutamyl-L-norleucyl-L-prolinamide] ([pGlu]-[Nle]-Pro-NH2) | 16.8 | 249 | 105 | 112 | 27.1 | 36.3 | 37.6 | 32.2 | 77 | 74 | 3.8 |
| CCC[C@H](NC(=O)[C@@H]1CCC(=O)N1)C(=O)N1CCC[C@H]1C(N)=O [Nva Pro H, L-Pyroglutamyl-L-norvalyl-L-prolinamide] ([pGlu]-[Nva]-Pro-NH2) | 11.4 | 254 | 156 | 214 | 25.9 | 36.2 | 36.4 | 32.0 | 114 | 77 | 0 |
| NC(=O)[C@@H]1CCCN1C(=O)[C@H](Cc1c[nH]cn1)NC(=O)[C@@H]1CCC(=O)N1 [TRH, L-pyroglutamyl-L-histidyl-L-prolinamide, reference compound] | 80 | 100 | 100 | 100 | 25.9 | 36.2 | 33.5 | 30.2 | 56 | 35 | 100.0 |
